Experimental data taken from patent US20240343727A1, “PYRIDAZINONE OR PYRIDINONE COMPOUNDS, PREPARATION METHODS AND USES THEREOF” (InventisBio Co., Ltd., priority 2021, published 2024).

Molecular target: T1, PARP7 (Homo sapiens, UniProt Q7Z3E1)
T1 sequence (Q7Z3E1 1-657): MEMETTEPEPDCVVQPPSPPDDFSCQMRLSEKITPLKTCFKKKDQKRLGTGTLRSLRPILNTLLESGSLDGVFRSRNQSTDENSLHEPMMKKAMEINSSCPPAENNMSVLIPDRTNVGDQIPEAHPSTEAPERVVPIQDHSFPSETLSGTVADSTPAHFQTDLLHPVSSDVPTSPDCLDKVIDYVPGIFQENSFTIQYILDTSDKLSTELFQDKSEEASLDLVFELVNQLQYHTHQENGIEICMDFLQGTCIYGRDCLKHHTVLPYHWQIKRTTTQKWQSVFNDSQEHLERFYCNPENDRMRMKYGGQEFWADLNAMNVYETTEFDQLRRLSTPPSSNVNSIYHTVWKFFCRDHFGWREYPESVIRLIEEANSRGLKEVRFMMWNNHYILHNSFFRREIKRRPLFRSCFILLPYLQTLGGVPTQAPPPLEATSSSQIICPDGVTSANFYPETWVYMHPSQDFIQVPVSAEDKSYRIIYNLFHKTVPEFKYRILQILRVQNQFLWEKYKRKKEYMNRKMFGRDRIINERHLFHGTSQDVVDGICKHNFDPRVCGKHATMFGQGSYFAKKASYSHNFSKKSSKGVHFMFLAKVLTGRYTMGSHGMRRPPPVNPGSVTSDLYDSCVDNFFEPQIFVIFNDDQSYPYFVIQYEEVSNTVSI
Assay: PARP7 TR-FRET assay (binding, displacement of biotinylated Probe A)
Conditions: 6 nM PARP7, 2 nM Probe A, 25° C., 30 min
Method in brief: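 His-tagged PARP7 at 6 nM was preincubated with compound and 2 nM biotinylated Probe A for 30 min at 25° C (HEPES pH 8.0, NaCl, BSA, DTT, Tween20). Europium-streptavidin/ULight-anti-His FRET was read as the 665/615 nm ratio after a further 30 min. IC50 was fitted from % inhibition normalised to vehicle and blank.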

| IC50 [nM] | SMILES |
| --- | --- |
| < 100 | O=C(CC1CN(c2n[nH]c(=O)c3cccnc23)CCO1)N1CCN(c2ncc(C(F)(F)F)cn2)CC1 (single isomer, unassigned) [Compound 104] |
| 100 to 1000 | O=C(CC1CN(c2n[nH]c(=O)c3cc(Cl)cc(F)c23)CCO1)N1CCN(c2ncc(C(F)(F)F)cn2)CC1 (single isomer, unassigned) [Compound 240] |
| < 100 | N#Cc1cnc(N2CCN(C(=O)CC3CN(c4cc(C(F)(F)F)c(=O)[nH]n4)c4cc(C#N)ccc4O3)CC2)nc1 (single isomer, unassigned) [Compound 218] |
| < 100 | COCCNC(=O)c1ccc2c(c1)N(c1cc(C(F)(F)F)c(=O)[nH]n1)CC(CC(=O)N1CCN(c3ncc(C(F)(F)F)cn3)CC1)O2 (single isomer, unassigned) [Compound 310] |
| 100 to 1000 | C[C@@H]1CN(C(=O)CC2CN(c3cc(C(F)(F)F)c(=O)[nH]n3)c3cc(Cl)ccc3O2)CCN1c1ncc(C#N)cn1 (single isomer, unassigned) [Compound 330] |
| 100 to 1000 | C[C@@H]1CN(c2n[nH]c(=O)c3c(F)cccc23)C[C@@H](CC(=O)N2CCN(c3ncc(C(F)(F)F)cn3)CC2)O1 (stereo in doubt) [Compound 96] |
| < 100 | O=C(c1cccc(Oc2n[nH]c(=O)c(C(F)(F)F)c2N2CC3(CCC3)C2)c1)N1CCN(c2cnc(C(F)F)cn2)CC1 [Compound 189] |
| < 100 | O=C(CC1CN(c2cc(C(F)(F)F)c(=O)[nH]n2)c2ccc(F)cc2O1)N1CCN(c2ncc(C(F)(F)F)cn2)CC1 (single isomer, unassigned) [Compound 157] |
| < 100 | O=C(CC1CN(c2cc(C(F)(F)F)c(=O)[nH]n2)c2cc(N3CCOCC3=O)ccc2O1)N1CCN(c2ncc(C(F)(F)F)cn2)CC1 (single isomer, unassigned) [Compound 282] |
| < 100 | Cc1c(N2CCOC(CC(=O)N3CCN(c4ncc(C(F)(F)F)cn4)CC3)C2)n[nH]c(=O)c1C(F)(F)F (single isomer, unassigned) [Compound 38] |
| < 100 | C#CC1CN(c2c(Oc3cccc(C(=O)N4CCN(c5ncc(C(F)(F)F)cn5)CC4)c3)n[nH]c(=O)c2C(F)(F)F)C1 [Compound 185] |
| < 100 | COCCNc1c(Oc2cccc(C(=O)N3CCN(c4ncc(C(F)(F)F)cn4)CC3)c2)n[nH]c(=O)c1C(F)(F)F [Compound 169] |
| < 100 | COCC(=O)Nc1ccc2c(c1)N(c1cc(C(F)(F)F)c(=O)[nH]n1)CC(CC(=O)N1CCN(c3ncc(C(F)(F)F)cn3)CC1)O2 (single isomer, unassigned) [Compound 283] |
| 100 to 1000 | O=C(CC1CN(c2n[nH]c(=O)c3ccccc23)CCO1)N1CCN(c2ncc(C(F)(F)F)cn2)CC1 (single isomer, unassigned) [Compound 107] |
| < 100 | N#Cc1ccc2c(c1)N(c1cc(C(F)(F)F)c(=O)[nH]n1)CC(CC(=O)N1CCN(c3ncc(C(F)(F)F)cn3)CC1)O2 (stereo not drawn) [Compound 136] |
| > 1000 | N#CC1(c2ccnc(N3CCN(C(=O)CC4CN(c5cc(C(F)(F)F)c(=O)[nH]n5)c5cc(F)ccc5O4)CC3)n2)CC1 (single isomer, unassigned) [Compound 344] |
| < 100 | O=C(CC1CN(c2n[nH]c(=O)c3c(Cl)cccc23)CCO1)N1CCN(c2ncc(C(F)(F)F)cn2)CC1 (single isomer, unassigned) [Compound 93] |
| < 100 | CS(=O)(=O)Cc1ccc2c(c1)N(c1cc(C(F)(F)F)c(=O)[nH]n1)CC(CC(=O)N1CCN(c3ncc(C(F)(F)F)cn3)CC1)O2 (single isomer, unassigned) [Compound 271] |
| > 1000 | O=C(CC1CN(c2cc(C(F)(F)F)c(=O)[nH]n2)c2ccccc2O1)N1CCn2c(nnc2C(F)(F)F)C1 (single isomer, unassigned) [Compound 289] |
| < 100 | Cc1ccc(Oc2n[nH]c(=O)c(C(F)(F)F)c2C)cc1C(=O)N1CCN(c2ncc(C(F)(F)F)cn2)CC1 [Compound 65] |
| < 100 | N#Cc1ccc(N2CCN(C(=O)[C@@H]3COCCN3c3cc(C(F)(F)F)c(=O)[nH]n3)CC2)nc1 [Compound 37] |
| < 100 | O=C(CC1CN(c2n[nH]c(=O)c3c(Cl)cccc23)CCO1)N1CCN(c2ncc(C(F)(F)F)cn2)CC1 (single isomer, unassigned) [Compound 98] |
| < 100 | O=C(CC1CN(c2cc(C(F)(F)F)c(=O)[nH]n2)c2cc(F)ccc2O1)N1CCN(c2ncc(C(F)(F)F)cn2)CC1 (single isomer, unassigned) [Compound 130] |
| > 1000 | O=C(OC1CN(c2cc(C(F)(F)F)c(=O)[nH]n2)CCC1(F)F)N1CCN(c2ncc(C(F)(F)F)cn2)CC1 (single isomer, unassigned) [Compound 117] |

| IC50 [nM] | SMILES |
| --- | --- |
| < 100 | O=C(CC1CN(c2cc(C(F)(F)F)c(=O)[nH]n2)c2ccccc2O1)N1CCN(c2cnc(C(F)(F)F)cn2)CC1 (single isomer, unassigned) [Compound 262] |
| 100 to 1000 | O=C([C@H]1CN(c2cc(C(F)(F)F)c(=O)[nH]n2)CCO1)N1CCN(c2ncc(C(F)(F)F)cn2)CC1 [Compound 33] |
| < 100 | Cn1cc(-c2ccc3c(c2)N(c2cc(C(F)(F)F)c(=O)[nH]n2)CC(CC(=O)N2CCN(c4ncc(C(F)(F)F)cn4)CC2)O3)cn1 (single isomer, unassigned) [Compound 192] |
| < 100 | O=C(c1cncc(Oc2n[nH]c(=O)c(C(F)(F)F)c2N2CC3(CCCO3)C2)c1)N1CCN(c2ncc(C(F)(F)F)cn2)CC1 [Compound 233] |
| 100 to 1000 | CNC1CC(Nc2c(Oc3cccc(C(=O)N4CCN(c5ncc(C(F)(F)F)cn5)CC4)c3)n[nH]c(=O)c2C(F)(F)F)C1 (stereo not drawn) [Compound 171] |
| < 100 | O=C(c1cccc(Oc2n[nH]c(=O)c(C(F)(F)F)c2N2CC3(CCO3)C2)c1)N1CCN(c2ncc(C(F)(F)F)cn2)C2(CC2)C1 [Compound 253] |
| < 100 | CC1CN(c2c(Oc3cccc(C(=O)N4CCN(c5ncc(C(F)(F)F)cn5)CC4)c3)n[nH]c(=O)c2C(F)(F)F)C1 [Compound 181] |
| 100 to 1000 | O=C(CC1CN(c2cc(C(F)(F)F)c(=O)[nH]n2)c2ccc(F)cc2O1)N1CCN(c2ncc(C(F)(F)F)cn2)CC1 (single isomer, unassigned) [Compound 158] |
| < 100 | N#Cc1cnc(N2CCN(C(=O)c3cccc(Oc4n[nH]c(=O)c(C(F)(F)F)c4N4CC(C5CC5)C4)c3)CC2)nc1 [Compound 303] |
| 100 to 1000 | CNCc1ccc2c(c1)N(c1cc(C(F)(F)F)c(=O)[nH]n1)CC(CC(=O)N1CCN(c3ncc(C(F)(F)F)cn3)CC1)O2 (single isomer, unassigned) [Compound 298] |
| < 100 | O=C(CC1CN(c2cc(C(F)(F)F)c(=O)[nH]n2)c2cc(C(F)F)ccc2O1)N1CCN(c2ncc(C(F)(F)F)cn2)CC1 (single isomer, unassigned) [Compound 227] |
| < 100 | CC1(C#N)CN(c2c(Oc3cccc(C(=O)N4CCN(c5ncc(C(F)(F)F)cn5)CC4)c3)n[nH]c(=O)c2C(F)(F)F)C1 [Compound 213] |
| < 100 | O=C([C@@H]1COCCN1c1cc(C(F)(F)F)c(=O)[nH]n1)N1CCN(c2ncc(C(F)(F)F)cn2)CC1 [Compound 36] |
| < 100 | N#Cc1ccc(N2CCN(C(=O)c3cccc(Oc4n[nH]c(=O)c(C(F)(F)F)c4N4CC5(CCC5)C4)c3)CC2)nc1 [Compound 161] |
| 100 to 1000 | N#Cc1cnc(N2CCN(C(=O)CC3CN(c4cc(C(F)(F)F)c(=O)[nH]n4)c4cc(F)ccc4O3)CC2)nc1 (single isomer, unassigned) [Compound 265] |
| 100 to 1000 | N#Cc1ccc(N2CCN(C(=O)CC3CN(c4cc(C(F)(F)F)c(=O)[nH]n4)c4cc(F)ccc4O3)CC2)nc1 (single isomer, unassigned) [Compound 269] |
| < 100 | CN(C)C1CN(c2c(Oc3cccc(C(=O)N4CCN(c5ncc(C(F)(F)F)cn5)CC4)c3)n[nH]c(=O)c2C(F)(F)F)C1 [Compound 82] |
| < 100 | O=C(c1cc(Oc2n[nH]c(=O)c(C(F)(F)F)c2N2CC3(C2)CC(F)(F)C3)ccn1)N1CCN(c2ncc(C(F)(F)F)cn2)CC1 [Compound 304] |
| < 100 | N#Cc1ccc(N2CCN(C(=O)CC3CN(c4cc(C(F)(F)F)c(=O)[nH]n4)c4ccccc4O3)CC2)nc1 (single isomer, unassigned) [Compound 221] |
| < 100 | C#Cc1cnc(N2CCN(C(=O)CC3CN(c4cc(C(F)(F)F)c(=O)[nH]n4)c4cc(C#N)ccc4O3)CC2)nc1 (single isomer, unassigned) [Compound 235] |
| < 100 | O=C(c1cccc(Oc2n[nH]c(=O)c(C(F)(F)F)c2N2CC3(CCC3)C2)c1)N1CCN(c2nnc(C(F)(F)F)s2)CC1 [Compound 231] |
| < 100 | COC[C@H]1C[C@@H]1Nc1c(Oc2cccc(C(=O)N3CCN(c4ncc(C(F)(F)F)cn4)CC3)c2)n[nH]c(=O)c1C(F)(F)F [Compound 198] |
| > 1000 | CNc1c(Oc2cccc(C(=O)N3CCN(c4ncc(C(F)(F)F)cn4)CC3)c2)n[nH]c(=O)c1C(C)=O [Compound 74] |
| < 100 | O=C(CC1CN(c2cc(C(F)(F)F)c(=O)[nH]n2)CCC1(F)F)N1CCN(c2ncc(C(F)(F)F)cn2)CC1 (single isomer, unassigned) [Compound 108] |
